For assay [1], the target named is Cyclin-dependent kinase 12 (Homo sapiens) (UniProt Q9NYV4). Put plainly: Binding affinity to CDK12 in human Jurkat cells assessed as target occupancy level incubated for 2 hrs by measuring Bio-THZ531 bound protein level by spectrophotometry based plate based target engagement assay. The class given is cell-based.
The target in assay [2] is T1, Cyclin-dependent kinase 7 (Homo sapiens, UniProt P50613). Put plainly: Binding affinity to CDK7 in human Jurkat cells assessed as target occupancy level incubated for 2 hrs by measuring Bio-THZ531 bound protein level by spectrophotometry based plate based target engagement assay. It counts as cell-based.
The target in assay [3] is T1, Cyclin-dependent kinase 7. The assay is described as follows: Inhibition of CDK7 (unknown origin) assessed as reduction in ATP-dependent phosphorylation of ULight-myelin basic protein substrate peptide incubated for 60 mins by LANCE TR-FRET assay.

T1 sequence (P50613 whole entry): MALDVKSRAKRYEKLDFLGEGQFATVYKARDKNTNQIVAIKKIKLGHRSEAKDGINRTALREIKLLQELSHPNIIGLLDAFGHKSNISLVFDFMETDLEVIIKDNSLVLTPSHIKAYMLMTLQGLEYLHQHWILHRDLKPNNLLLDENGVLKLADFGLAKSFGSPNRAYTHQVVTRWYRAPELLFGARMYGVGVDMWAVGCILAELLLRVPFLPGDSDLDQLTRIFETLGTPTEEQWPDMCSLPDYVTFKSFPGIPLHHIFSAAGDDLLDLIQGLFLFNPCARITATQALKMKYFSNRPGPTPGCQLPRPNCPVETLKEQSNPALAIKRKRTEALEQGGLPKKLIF
Chain of Cyclin-dependent kinase 12 (Homo sapiens) (Q9NYV4 whole entry, looked up): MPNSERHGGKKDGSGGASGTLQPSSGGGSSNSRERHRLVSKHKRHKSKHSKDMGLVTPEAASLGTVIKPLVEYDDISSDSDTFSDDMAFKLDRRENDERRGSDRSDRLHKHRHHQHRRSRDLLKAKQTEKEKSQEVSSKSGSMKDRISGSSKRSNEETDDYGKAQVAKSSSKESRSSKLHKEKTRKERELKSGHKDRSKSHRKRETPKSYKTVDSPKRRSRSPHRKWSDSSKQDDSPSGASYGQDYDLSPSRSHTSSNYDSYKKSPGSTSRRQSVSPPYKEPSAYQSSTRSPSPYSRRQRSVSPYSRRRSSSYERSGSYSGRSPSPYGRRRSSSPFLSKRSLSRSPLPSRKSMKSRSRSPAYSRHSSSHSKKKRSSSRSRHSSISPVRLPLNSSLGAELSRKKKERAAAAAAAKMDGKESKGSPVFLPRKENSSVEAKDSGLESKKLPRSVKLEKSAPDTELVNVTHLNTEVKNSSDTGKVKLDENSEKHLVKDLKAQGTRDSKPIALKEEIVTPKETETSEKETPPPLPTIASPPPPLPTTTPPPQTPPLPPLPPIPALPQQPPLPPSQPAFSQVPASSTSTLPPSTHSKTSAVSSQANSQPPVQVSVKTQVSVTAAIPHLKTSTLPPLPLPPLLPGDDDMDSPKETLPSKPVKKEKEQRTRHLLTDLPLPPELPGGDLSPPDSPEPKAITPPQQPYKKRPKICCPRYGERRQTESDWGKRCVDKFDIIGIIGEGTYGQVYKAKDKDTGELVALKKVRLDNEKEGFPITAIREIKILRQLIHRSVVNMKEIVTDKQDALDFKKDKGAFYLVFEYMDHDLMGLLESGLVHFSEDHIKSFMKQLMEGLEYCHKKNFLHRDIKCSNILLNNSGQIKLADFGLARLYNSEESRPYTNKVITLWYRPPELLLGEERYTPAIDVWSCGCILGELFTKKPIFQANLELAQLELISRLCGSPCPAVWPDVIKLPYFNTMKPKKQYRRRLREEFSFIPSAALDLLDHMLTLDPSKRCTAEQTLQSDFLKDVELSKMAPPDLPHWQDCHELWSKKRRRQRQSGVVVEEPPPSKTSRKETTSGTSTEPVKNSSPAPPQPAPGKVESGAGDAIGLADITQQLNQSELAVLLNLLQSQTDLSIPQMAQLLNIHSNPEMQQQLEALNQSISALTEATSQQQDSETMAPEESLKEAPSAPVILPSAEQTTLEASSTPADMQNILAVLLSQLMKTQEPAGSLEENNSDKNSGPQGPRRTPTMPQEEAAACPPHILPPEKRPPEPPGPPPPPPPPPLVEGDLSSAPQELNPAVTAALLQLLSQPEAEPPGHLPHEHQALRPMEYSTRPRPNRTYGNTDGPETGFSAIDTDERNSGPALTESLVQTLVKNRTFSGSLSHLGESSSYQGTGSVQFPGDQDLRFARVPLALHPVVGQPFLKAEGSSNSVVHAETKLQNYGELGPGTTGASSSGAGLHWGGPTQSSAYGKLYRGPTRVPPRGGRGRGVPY

For `C=CC(=O)NCc1ccc(-c2ccc([C@H](C)C(=O)Nc3cc(C4CC4)[nH]n3)cc2)cn1`, the Occ50 in assay [1] is 0.022 µM; in assay [2] it was more than 2 µM.

On to `CC(C(=O)Nc1cc(C2CC2)[nH]n1)c1ccc(-c2ccc(NC(=O)/C=C/CN3CCOCC3)cc2)cc1` (stereo in doubt; 12), for which the half-inhibitory concentration (IC50) in assay [3] is more than 10 µM.

For `C=CC(=O)NCc1ccc(-c2ccc(C(C)C(=O)Nc3cc(C4CC4)[nH]n3)cc2)cn1` (stereo unspecified), the figures for the Occ50 in assay [1] and in assay [2] were 0.23 µM and 0.61 µM, respectively.

On to `C=CC(=O)NCc1ccc(-c2ccc(C(C)C(=O)Nc3cc(C4CC4)[nH]n3)cn2)cn1` (stereo unspecified), for which, in assay [3], the IC50 was more than 10 µM.

The values are drawn from ChEMBL document CHEMBL4739718, “Substituted 5-cyclopropyl-1h-pyrazol-3-yl-amine derivatives as selective cdk12/13 inhibitors” (2020).
